Measured values taken from US20120214862A1, “MODULATION OF FACTOR 7 EXPRESSION” (ISIS Pharmaceuticals, Inc., priority 2009, published 2012).
In the oligonucleotide strings, read from the 5' end, every base follows the letter of its sugar. An asterisk marks phosphorothioate; unmarked linkages are phosphodiester. Other units and linkages are bracketed, terminal groups are in braces. A string of capitals states the bases alone. e = 2'-O-(2-methoxyethyl) (MOE); [5mC] = 5-methylcytosine; d = 2'-deoxy (DNA)

How the values were obtained:
[1] = system: human Factor 7 mRNA; test: Dose-dependent antisense inhibition of human Factor 7 in HepB3 cells, transfection with electroporation; type: cell-based
Procedure, shortened: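 HepB3 cells, 20,000/well, electroporated with gapmers at 3.125–100 μM; about 16 h treatment. Factor 7 mRNA by qRT-PCR with primer probe set RTS 2927, normalized to RIBOGREEN total RNA; percent inhibition versus untreated cells.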

[2] = system: human Factor 7 mRNA; test: Dose-dependent antisense inhibition of human Factor 7 in HepB3 cells, transfection with lipofectin; type: cell-based; conditions: for percent inhibition of Factor 7 mRNA, relative to untreated control cells: lipofectin, HepB3 cells, 16 hours; for percent inhibition of Factor 7 mRNA, 3.125 nM / percent inhibition of Factor 7 mRNA, 6.25 nM / percent inhibition of Factor 7 mRNA, 12.5 nM / percent inhibition of Factor 7 mRNA, 25.0 nM / percent inhibition of Factor 7 mRNA, 50.0 nM / percent inhibition of Factor 7 mRNA, 100.0 nM: HepB3, lipofectin, ~16 h
Procedure, shortened: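 HepB3 cells (4,000/well) lipofectin-transfected with antisense oligonucleotide at 3.125 or 6.25 up to 100 nM for ~16 h. Factor 7 mRNA measured by real-time RT-PCR with primer probe set RTS 2927, adjusted to RIBOGREEN total RNA; expressed as percent inhibition versus untreated control cells.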

[3] = 3.125 μM, 16 hours (Example 7, Table 15)
[4] = 3.125 μM, 16 hours (Example 8, Table 16)
[5] = 6.25 μM, 16 hours (Example 7, Table 15)
[6] = 6.25 μM, 16 hours (Example 8, Table 16)
[7] = 12.5 μM, 16 hours (Example 7, Table 15)
[8] = 12.5 μM, 16 hours (Example 8, Table 16)
[9] = 25 μM, 16 hours (Example 7, Table 15)
[10] = 25 μM, 16 hours (Example 8, Table 16)
[11] = 50 μM, 16 hours (Example 7, Table 15)
[12] = 50 μM, 16 hours (Example 8, Table 16)
[13] = 100 μM, 16 hours (Example 7, Table 15)
[14] = 100 μM, 16 hours (Example 8, Table 16)

Row | Substance | percent inhibition of Factor 7 mRNA, relative to untreated control cells [1, 3] [%] | percent inhibition of Factor 7 mRNA, relative to untreated control cells [1, 4] [%] | percent inhibition of Factor 7 mRNA, relative to untreated control cells [1, 5] [%] | percent inhibition of Factor 7 mRNA, relative to untreated control cells [1, 6] [%] | percent inhibition of Factor 7 mRNA, relative to untreated control cells [1, 7] [%] | percent inhibition of Factor 7 mRNA, relative to untreated control cells [1, 8] [%] | percent inhibition of Factor 7 mRNA, relative to untreated control cells [1, 9] [%] | percent inhibition of Factor 7 mRNA, relative to untreated control cells [1, 10] [%] | percent inhibition of Factor 7 mRNA, relative to untreated control cells [1, 11] [%] | percent inhibition of Factor 7 mRNA, relative to untreated control cells [1, 12] [%] | percent inhibition of Factor 7 mRNA, relative to untreated control cells [1, 13] [%] | percent inhibition of Factor 7 mRNA, relative to untreated control cells [1, 14] [%] | percent inhibition of Factor 7 mRNA, relative to untreated control cells ([2]; 3.125 nM) [%] | percent inhibition of Factor 7 mRNA, relative to untreated control cells ([2]; 12.5 nM) [%] | percent inhibition of Factor 7 mRNA, relative to untreated control cells ([2]; 25 nM) [%] | percent inhibition of Factor 7 mRNA, relative to untreated control cells ([2]; 50 nM) [%] | percent inhibition of Factor 7 mRNA, relative to untreated control cells ([2]; 100 nM) [%] | percent inhibition of Factor 7 mRNA, 3.125 nM ([2]; Example 2, 3.125 nM) [%] | percent inhibition of Factor 7 mRNA, 6.25 nM ([2]; Example 2) [%] | percent inhibition of Factor 7 mRNA, 12.5 nM ([2]; Example 2, 12.5 nM) [%] | also measured
1 | 407935 (antisense eA*eT*eG*e[5mC]*eA*dT*dG*dG*dT*dG*dA*dT*dG*d[5mC]*dT*eT*e[5mC]*eT*eG*eA) [compound 407935] | 37 | 63 | 47 | 79 | 67 | 84 | 73 | 90 | 80 | 90 | 87 | 91 | 19 | 58 | 70 | 85 | 87 | 57 | 76 | 78 | percent inhibition of Factor 7 mRNA, 25.0 nM ([2]; Example 2): 89%; percent inhibition of Factor 7 mRNA, 50.0 nM ([2]; Example 2): 90%; percent inhibition of Factor 7 mRNA, 100.0 nM ([2]; Example 2): 89%; percent inhibition of Factor 7 mRNA, 6.25 nM ([2]; Example 5): 38%; percent inhibition of Factor 7 mRNA, 12.5 nM ([2]; Example 5, 12.5 nM): 53%; percent inhibition of Factor 7 mRNA, 25.0 nM ([2]; Example 5): 70%; percent inhibition of Factor 7 mRNA, 50.0 nM ([2]; Example 5): 82%; percent inhibition of Factor 7 mRNA, 100.0 nM ([2]; Example 5): 86%; percent inhibition of Factor 7 mRNA, relative to untreated control cells [2]: 39%
2 | 407939 (antisense eT*eG*e[5mC]*eA*eG*d[5mC]*d[5mC]*d[5mC]*dG*dG*d[5mC]*dA*d[5mC]*d[5mC]*d[5mC]*eA*eG*e[5mC]*eG*eA) [compound 407939] | 18 | 35 | 28 | 60 | 42 | 60 | 56 | 73 | 68 | 81 | 82 | 83 | 17 | 57 | 75 | 80 | 83 | 62 | 79 | 83 | percent inhibition of Factor 7 mRNA, 25.0 nM ([2]; Example 2): 91%; percent inhibition of Factor 7 mRNA, 50.0 nM ([2]; Example 2): 92%; percent inhibition of Factor 7 mRNA, 100.0 nM ([2]; Example 2): 92%; percent inhibition of Factor 7 mRNA, 6.25 nM ([2]; Example 5): 37%; percent inhibition of Factor 7 mRNA, 12.5 nM ([2]; Example 5, 12.5 nM): 57%; percent inhibition of Factor 7 mRNA, 25.0 nM ([2]; Example 5): 77%; percent inhibition of Factor 7 mRNA, 50.0 nM ([2]; Example 5): 84%; percent inhibition of Factor 7 mRNA, 100.0 nM ([2]; Example 5): 87%; percent inhibition of Factor 7 mRNA, relative to untreated control cells [2]: 35%
